Results from patent publication US20230091047A1 (priority 2019, published 2023).
Where two headings read alike, the source gives them in different places.

Legend:
[1] = in vitro; type: cell-based; details: human, HepG2 or HepG2.117 cells, ATPlite, 3-days incubation (not marked with *), mean value
Summary of the method: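 Luminescent ATP quantitation served as the viability endpoint following a 3- or 4-day incubation with test compounds.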

[2] = system: HBV (HepG2.117 cell line, inducibly HBV producing); assay: Anti-HBV activity: intracellular HBV DNA by real-time PCR in HepG2.117 cells after 3 days of treatment; type: cell-based, hepatitis B virus; details: HepG2.117 cells, intracellular HBV DNA by real-time PCR, 3 days of treatment, mean value, read-out: EC50 (μM, mean value)
Summary of the method: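 Read-out is intracellular HBV DNA, measured by real-time PCR using HBV-specific primers and probe. Cells were stable, inducible HBV-producing HepG2.117 (Tet-off). Serially diluted compound was applied for 3 days after replication was induced.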

[3] = Hepatitis B virus, HepG2.117, 72 h

CC(C)Nc1nc2c(c(=O)n1-c1ccc(-n3cccn3)cc1Cl)C[C@@H](C)N(C(=O)c1ccc(Cl)c(Cl)c1)C2 [Compound C404]
CC50 at 3 days [1]: > 50 µM | EC50 [2, 3]: 0.13 µM

CNC(=O)c1ccc(-n2c(NC(C)(C)c3ccccc3)nc3c(c2=O)C[C@@H](C)N(C(=O)c2ccc(Cl)c(Cl)c2)C3)cc1 [Compound C407]
CC50 at 3 days [1]: 18 µM | EC50 [2, 3]: 0.15 µM

CNC(=O)c1ccc(-n2c(N3CC4CC3C4)nc3c(c2=O)C[C@@H](C)N(C(=O)c2ccc(Cl)c(Cl)c2)C3)cc1 [Compound C408]
CC50 at 3 days [1]: > 50 µM | EC50 [2, 3]: 0.05 µM

CC(=O)Nc1ccc(-n2c(NC(C)C)nc3c(c2=O)C[C@@H](C)N(C(=O)c2ccc(Cl)c(Cl)c2)C3)cc1 [Compound C409]
CC50 at 3 days [1]: > 50 µM | EC50 [2, 3]: 0.11 µM

COc1ccc(C(C)Nc2nc3c(c(=O)n2-c2ccc(NC(C)=O)cc2)C[C@@H](C)N(C(=O)c2ccc(Cl)c(Cl)c2)C3)cc1 (stereo partly shown) [Compound C410]
CC50 at 3 days [1]: 32.6 µM | EC50 [2, 3]: 0.13 µM

CNC(=O)c1ccc(-n2c(N[C@H](C)c3ccc(OC(F)F)cc3)nc3c(c2=O)C[C@@H](C)N(C(=O)c2ccc(Cl)c(Cl)c2)C3)cc1 [Compound C411a]
CC50 at 3 days [1]: 47.4 µM | EC50 [2]: 1.02 µM

CNC(=O)c1ccc(-n2c(NC(C)c3ccc(S(C)(=O)=O)cc3)nc3c(c2=O)C[C@@H](C)N(C(=O)c2ccc(Cl)c(Cl)c2)C3)cc1 (stereo partly shown) [Compound C412]
CC50 at 3 days [1]: > 50 µM | EC50 [2, 3]: 1.6 µM

CNC(=O)c1ccc(-n2c(NC(C)c3ccc(C(F)(F)F)cc3)nc3c(c2=O)C[C@@H](C)N(C(=O)c2ccc(Cl)c(Cl)c2)C3)cc1 (stereo partly shown) [Compound C413]
CC50 at 3 days [1]: 6.5 µM | EC50 [2, 3]: 0.15 µM

CNC(=O)c1ccc(-n2c(NC(C)C)nc3c(c2=O)C[C@@H](C)N(C(=O)c2ccc(C(F)F)c(Cl)c2)C3)cc1 [Compound C418]
CC50 at 3 days [1]: > 50 µM | EC50 [2, 3]: 0.08 µM

CNC(=O)c1ncc(-n2c(NC(C)C)nc3c(c2=O)C[C@@H](C)N(C(=O)c2ccc(Cl)c(Cl)c2)C3)n1C [Compound C419]
CC50 at 3 days [1]: > 50 µM | EC50 [2, 3]: 0.19 µM

CNC(=O)c1ccc(-n2c(NC(C)C)nc3c(c2=O)C[C@@H](C)N(C(=O)c2ccc(Cl)c(Cl)c2)C3)c(C(C)C)c1 [Compound C420]
CC50 at 3 days [1]: 25 µM | EC50 [2]: 0.61 µM

CNC(=O)c1ccc(-n2c(Nc3cn(C)nn3)nc3c(c2=O)C[C@@H](C)N(C(=O)c2ccc(Cl)c(Cl)c2)C3)cc1 [Compound C421]
CC50 at 3 days [1]: > 50 µM | EC50 [2, 3]: > 8.1 µM

CNC(=O)c1ccc(-n2c(NCc3c[nH]nn3)nc3c(c2=O)C[C@@H](C)N(C(=O)c2ccc(Cl)c(Cl)c2)C3)cc1 [Compound C423]
CC50 at 3 days [1]: > 50 µM | EC50 [2, 3]: > 7.4 µM

CNC(=O)c1cc(-n2c(NC(C)C)nc3c(c2=O)C[C@@H](C)N(C(=O)c2ccc(Cl)c(Cl)c2)C3)n(C(C)C)n1 [Compound C424]
CC50 at 3 days [1]: > 50 µM | EC50 [2, 3]: 0.93 µM

CNC(=O)c1ccc(-n2c(NC(C)C)nc3c(c2=O)C[C@@H](C)N(C(=O)c2ccc(Cl)c(C(F)F)c2)C3)cc1 [Compound C427]
CC50 at 3 days [1]: > 50 µM | EC50 [2, 3]: 0.05 µM

CNC(=O)c1ccc(-n2c(NC(C)C)nc3c(c2=O)C[C@@H](C)N(C(=O)c2ccc(Cl)c(C(F)(F)F)c2)C3)cc1 [Compound C428]
CC50 at 3 days [1]: > 50 µM | EC50 [2, 3]: 0.03 µM

CNC(=O)c1ccc(-n2c(NC(C)C)nc3c(c2=O)C[C@@H](C)N(C(=O)c2ccc(Cl)c(C)c2)C3)cc1 [Compound C429]
CC50 at 3 days [1]: > 50 µM | EC50 [2, 3]: 0.06 µM

CC(C)Nc1nc2c(c(=O)n1-c1ccc(-n3ccnn3)cc1)C[C@@H](C)N(C(=O)c1ccc(Cl)c(Cl)c1)C2 [Compound C430]
CC50 at 3 days [1]: > 50 µM | EC50 [2, 3]: 0.06 µM

CNC(=O)c1ccc(-n2c(N[C@@H](C)c3ccc(C)cc3)nc3c(c2=O)C[C@@H](C)N(C(=O)c2ccc(Cl)c(Cl)c2)C3)cc1 [Compound C431]
CC50 at 3 days [1]: 20.6 µM | EC50 [2, 3]: 0.03 µM

CNC(=O)c1cc(-n2c(N[C@@H](C)c3ccc(F)cc3)nc3c(c2=O)C[C@@H](C)N(C(=O)c2ccc(Cl)c(Cl)c2)C3)[nH]n1 [Compound C432]
CC50 at 3 days [1]: 21.4 µM | EC50 [2, 3]: 0.1 µM
